Several values for one entry are separate records, joined by “and”; a condition that tells them apart may be missing. Equal entries are not always repeated. Where two headings read alike, the source gives them in different places.
Assays:
[1] = target: N-methyl-D-aspartate receptors (NMDARs); details: read-out: model-predicted IC50; [Ca2+] = 2.5 mM, Vm = −70 mV
Excerpt: To obtain the voltage-dependence of NMDAR block by TCAs, the concentration-ihibition curves were generated at three membrane holding potentials Vm = −100, −70, and −30 mV. The obtained values were fitted with the modified by incorporating the dependence of NMDAR inhibition on [Ca^2+] ([Stepanenko et al., 2019]) Woodhull equation: IC50(Vm[Ca^2+])=IC50(0 mV)·exp(VmzδF/RT)·exp(-[Ca^2+]/X) (6) where IC50 (0 mV) and δ were set as free parameters. IC50 (0 mV) is the value of IC50 at Vm = 0 mV, δ is the fraction of the membrane voltage field exerting force on TCA at its binding site. z = 1 is a molecule electric charge for both DES and CLO. For Faraday constant, gas constant, and room temperature of 28°C, the RT/F ≈ 26 mV. RT/(zδF) is equal to Vm, producing an e-fold change of IC50, and X is equal to [Ca^2+], producing an e-fold change of IC50.
The model is described by Eq. 6 IC50 (Vm, [Ca^2+]) = IC50 (0 mV) • exp (Vm/(e-fold change Vm)) • exp (- [Ca^2+]/(e-fold change [Ca^2+])). The dependences of TCA IC50s on [Ca^2+] […]
FIGURE 7 Predicted IC50 values for NMDAR inhibition by tricyclic antidepressants as a function of membrane voltage (Vm) and external [Ca^2+]. […] The IC50s were calculated as IC50(Vm, [Ca^2+]) = IC50(0 mV) · exp (Vm/Y) ·exp(-[Ca^2+]/X), where X is equal to the [Ca^2+] value required for an e-fold change of IC50, and Y is equal to the Vm value required for an e-fold change of IC50.

NMDARs = details: cited from earlier work
[2] = system: N-methyl-D-aspartate receptors (NMDARs); details: for δ, fraction of the membrane electric field to the binding site: Woodhull model, from the outside
Method: All procedures on animals were performed in accordance with the guide of the Federation for Laboratory Animal Science Associations (FELASA) and were approved by the Animal Care and Use Committees of Sechenov Institute. Briefly, 17 days pregnant Wistar rats (supplied by the Sechenov Institute Animal Facility) were sacrificed by 1 min CO2 inhalation in a plastic box connected to a CO2 tank. Fetuses were removed, and then primary cultures of rat cortical neurons were prepared using conventional procedures as described earlier ([Antonov and Johnson 1996]; [Mironova et al., 2007]). Neurons were grown in Neurobasal culture medium supplemented with B-27 (Gibco-Invitrogen, United Kingdom) on 7 mm glass coverslips coated with poly-D-lysine and were used for experiments after 10–14 days in culture ([Mironova et al., 2007]; [Han and Stevens 2009]).
Whole-cell currents were recorded from cultured rat cortical neurons using a MultiClamp 700B patch-clamp amplifier. Recordings were low-pass filtered at 400 Hz and digitized at the acquisition rate of 20,000 samples per second by Digidata 1440A controlled by pClamp v10.6 software (Molecular Devices). Solution exchange was performed by means of a fast solution application system as described earlier ([Sibarov et al., 2015]). Unless otherwise specified, the external bathing solution contained (in mM): 144 NaCl; 2.8 KCl; 1.0 CaCl2; 10 HEPES, at pH 7.2–7.4, osmolarity 310 mOsm. The intrapipette solution contained (in mM): 120 CsF, 10 CsCl, 10 EGTA, and 10 HEPES, osmolarity 300 mOsm, with pH adjusted to 7.4 with CsOH. Patch pipettes of 4–6 MΩ were pulled from Sutter BF150-89-10 borosilicate capillaries. Experiments were performed at 22–25°C. Under control conditions, neurons were voltage clamped at −70 mV. Data are reported without corrections for liquid junction potential, which was measured as −11 mV. To activate NMDARs, 100 µM NMDA was always co-applied with 10 µM glycine as co-agonist. Some experiments were performed on neurons loaded with BAPTA. To load BAPTA, cortical neuron cultures were incubated in a bathing solution containing 5 µM BAPTA-AM for 1 h.
To determine the blocking potency of TCAs, NMDA elicited currents were measured in the absence and presence of different TCA concentrations ([B]). Amplitudes of currents measured in the presence of blocker (Ib) were normalized to maximal current response in control (Ic). The IC50 is the concentration of TCA that cause 50% of the maximal inhibition of currents, and the Hill coefficient (h) were estimated by fitting concentration-inhibition curves with the Hill equation: Ib/Ιc=1/(1+[Β]^h/ΙC50h) (1)
To obtain the voltage-dependence of NMDAR block by TCAs, the concentration-ihibition curves were generated at three membrane holding potentials Vm = −100, −70, and −30 mV. The obtained values were fitted with the modified by incorporating the dependence of NMDAR inhibition on [Ca^2+] ([Stepanenko et al., 2019]) Woodhull equation: IC50(Vm[Ca^2+])=IC50(0 mV)·exp(VmzδF/RT)·exp(-[Ca^2+]/X) (6) where IC50 (0 mV) and δ were set as free parameters. […] For Faraday constant, gas constant, and room temperature of 28°C, the RT/F ≈ 26 mV. RT/(zδF) is equal to Vm, producing an e-fold change of IC50, and X is equal to [Ca^2+], producing an e-fold change of IC50.

[3] = set-up: method as in Stern et al., 1980; McTavish and Benfield 1990; details: ref Stern et al., 1980; McTavish and Benfield 1990; cited from earlier work
[4] = system: N-methyl-D-aspartate receptors (NMDARs); experiment: Kinetics of NMDAR open-channel block and trapping block (block/unblock relaxations, AP5 washout protocol); format: cell-based, rat
Method: Experiments were performed at 22–25°C.
NMDAR current relaxations during block or unblock by TCA were fit with the single exponential equation: I =(Imax-Imin)·exp (-t/τ)+Imin (2) where Imax and Imin are maximal and minimal amplitudes of currents during relaxations and τ represents the time constant of the exponential component during block onset (τon) or offset (unblock, τoff). From these measurements, the rate constants of block (k^+) and unblock (k^−) was estimated. k^+ was obtained from τon measured at 20 and 90 μM DES (C1 and C2 respectively) using the equation: k^+=(1 /τonC2-1/τonC1)/(C2 - C1) (3)
The k^− was the reciprocal to measured τoff: k^-=1 /τoff (4)
The equilibrium dissociation constant (Kd) for DES was calculated as follows: Kd=k^-/ k^+ (5)
The rise time of currents activated by the testing NMDA + Gly application in trapping channel block experiments was fitted in ClampFit (pClamp, Axon Instruments) using the double exponential function: I=I1·exp(-t/τ1)+I2·exp(-t/τ2)- C (7) where I1 and I2 are amplitudes of the exponential and τ1 and τ2 are time constants of the exponential and C equals I1 + I2 + Ib.
To study the kinetics of open-channel block of NMDARs by DES, we performed experiments at a single Vm = −70 mV using a Ca^2+-free bathing solution to avoid the influence of the Ca^2+-dependent process. DES was applied at a steady state of NMDAR currents at high (90 μM) or low (20 μM) concentrations (Figure 4A). DES-induced block corresponds well to basic predictions of an open-channel block. The block onset (τon) and offset (τoff) were well fit by a single exponential function (Eq. 2). […] The rate constants of block and unblock calculated on the basis of Eqs 3, 4 were k^+ = 0.008 ± 0.002 s^−1 μM^−1; k^− = 0.039 ± 0.005 s^−1, correspondently.
The absence in records of “tail currents” upon the simultaneous removal of agonists and a blocker may speak in favor of trapping of the blocking molecule inside of the pore ([Costa and Albuquerque 1994]; [Vorobjev and Sharonova 1994]; [Benveniste and Mayer 1995]; [Sobolevsky et al., 1999]). We, therefore, further tested the possibility of trapping of DES in the pore of NMDARs by the channel closure. A series of experiments were carried out following the protocol used previously for ATL ([Stepanenko et al., 2019]). After reaching an equilibrium of NMDA-mediated currents, 90 μM DES was applied to the cell for 10 s until the development of a stable block with a small amount of residual current (Ib) (Figure 4C). […] Single exponential approximation of the data at Figure 4E (dashed line) elicits the time constant of 7.7 ± 1.8 s for DES escape from trapping, representing the quantitative characteristic of DES partial trapping block.

NMDAR channels = system: NMDAR channels; set-up: method as in Reynolds and Miller 1988; details: ref Reynolds and Miller 1988; cited from earlier work

SMILES: CN(C)CCC=C1c2ccccc2CCc2ccccc21 [ATL, amitriptyline]
- IC50 [1]: 1.6 µM
- e-fold change Vm (NMDARs; ref Stepanenko et al., 2019): 54 mV
- e-fold change [Ca2+] (NMDARs; ref Stepanenko et al., 2019): 0.63 mM
- time constant of escape from trapping block (NMDARs; ref Stepanenko et al., 2019): about 1.2 s
- δ, fraction of the membrane electric field (NMDARs; ref Stepanenko et al., 2019): 0.51
- IC50 (NMDARs; ref Stepanenko et al., 2019, read-out: IC50(0 mV)): 321 µM

SMILES: CN(C)CCCN1c2ccccc2CCc2ccc(Cl)cc21 [CLO, clomipramine]
- δ, fraction of the membrane electric field to the binding site [2]: 0.51
- therapeutic blood concentrations [3]: 0.3 to 1 µM

SMILES: CNCCCN1c2ccccc2CCc2ccccc21 [DES, desipramine]
- fold lesser rate of dissociation from channels than ATL [4]: about 5 folds
- rate constant of unblock k− ([4]; Vm = −70 mV, Ca2+-free solution, 1/τoff): 0.039 ± 0.005 s⁻¹
- rate constant of block k+ ([4]; Vm = −70 mV, Ca2+-free solution, from τon at 20 and 90 μM): 8000 ± 2000 M⁻¹ s⁻¹
- Kd ([4]; Vm = −70 mV, Ca2+-free solution, read-out: equilibrium dissociation constant Kd = k−/k+): 4.7 ± 1.9 µM
- fold drop of IC50 on increasing extracellular [Ca2+] from 0 to 1 mM [2]: 5 fold
- fold smaller Vm shift for an e-fold change of IC50 than ATL or CLO [2]: ~1.5 folds
- δ, fraction of the membrane electric field to the binding site [2]: 0.71
- open-channel block potency relative to ATL ([2]; based on IC50 (0 mV)): about 5 folds
- e-fold change Vm (Vm shift giving an e-fold change of IC50) ([2]; fit with Eq. 6): 37 ± 3.4 mV and 37 mV and 36.9 ± 3.4 mV
- e-fold change [Ca2+] ([Ca2+] shift giving an e-fold change of IC50) ([2]; fit with Eq. 6, Vm = −70 mV): 590 µM and 590 ± 70 µM
- IC50 ([2]; read-out: IC50(0 mV), value of IC50 at Vm = 0 mV from fit with Eq. 6 (Woodhull)): 60 ± 5.7 µM
- IC50 ([2]; read-out: IC50 of the inhibition of NMDAR currents, Vm = −30 mV, [Ca2+] = 0): 27 µM
- IC50 ([2]; read-out: IC50 of the inhibition of NMDAR currents, Vm = −30 mV, [Ca2+] = 1 mM): 4.85 µM
- IC50 ([2]; read-out: IC50 of the inhibition of NMDAR currents, Vm = −70 mV, [Ca2+] = 0): 8.3 µM
- IC50 ([2]; read-out: IC50 of the inhibition of NMDAR currents, Vm = −70 mV, [Ca2+] = 1 mM): 1.75 µM
- IC50 ([2]; read-out: IC50 of the inhibition of NMDAR currents, Vm = −70 mV, [Ca2+] = 4 mM): 1.8 µM and 1.81 µM
- IC50 ([2]; read-out: IC50 of the inhibition of NMDAR currents, Vm = −100 mV, [Ca2+] = 1 mM): 0.89 µM
- fold IC50 decrease with Vm shift from −30 to −100 mV ([2]; regardless of extracellular calcium): 5.4 fold
- IC50 [1]: 0.13 µM
- e-fold change Vm (NMDARs; 5 μM NMDA, physiological extracellular Ca2+, ref Sernagor et al., 1989): 36 mV
- IC50 (NMDARs; 5 μM NMDA, physiological extracellular Ca2+, ref Sernagor et al., 1989, read-out: IC50): 9.8 µM
- IC50 (NMDARs; Vm = −70 mV, extracellular Ca2+ present, 100 μM NMDA, ref Barygin et al., 2017, read-out: IC50): 1.4 µM
- IC50 (NMDARs; Vm = −70 mV, extracellular Ca2+ present, 100 μM NMDA, ref Nothdurfter et al., 2013, read-out: IC50): 2.7 µM
- IC50 (NMDARs; varying experimental conditions, ref Reynolds and Miller 1988, Sernagor et al., 1989, Nothdurfter et al., 2013, Barygin et al., 2017, read-out: IC50 values reported for NMDAR inhibition): 1.4 to 9.8 µM
- concentration displacing MK-801 from the NMDAR channels (NMDAR channels): 7.41 µM

From PMC8882908, “Tricyclic Antidepressant Structure-Related Alterations in Calcium-Dependent Inhibition and Open-Channel Block of NMDA Receptors” (Frontiers in Pharmacology, 2022)
